Reference: patent US20260325533A1, “CDK INHIBITOR COMPOUNDS” (ALEKSIA THERAPEUTICS, INC., priority 2023, published 2026)
Read-outs that look alike come from different tables or passages of the source.

How the values were obtained:
Format in all cases: biochemical
CDK1/CCNB1 = CDK1/CCNB1 (Homo sapiens, UniProt P06493); experiment: CDK1 homogeneous time-resolved fluorescence (HTRF) kinase assay; settings: CDK1/CCNB
How it was run: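 High-ATP (1 mM) HTRF assay with 0.5 nM CDK1/cyclin B1 and 50 nM ULight-4E-BP1 (Thr37/46) substrate, 60 min at 23 °C after 20-min compound preincubation. IC50 values come from dose-response curves.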

CDK6/CCND1 = CDK6/CCND1 (Homo sapiens, UniProt Q00534); experiment: CDK6 homogeneous time-resolved fluorescence (HTRF) kinase assay; settings: CDK6/CCND
How it was run: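 Enzyme pre-incubated 20 min at 23 °C with compound, then reacted 60 min at 23 °C with 1 mM ATP and 50 nM ULight-4E-BP1 (Thr37/46) peptide; 1 nM enzyme, 1% DMSO. EDTA-stopped, Eu-anti-phospho antibody TR-FRET read (665 nm or 665/615 ratio); 11-point half-log titration from 10 μM gave IC50.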

CDK4/CCND3 = CDK4/CCND3 (Homo sapiens, UniProt P11802); experiment: CDK4 homogeneous time-resolved fluorescence (HTRF) kinase assay; settings: CDK4/CCND
How it was run: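 CDK4/CCND3 at 1.5 nM was preincubated with compound for 20 min at 23 °C, then reacted for 60 min with 1 mM ATP and 50 nM ULight-4E-BP1 (Thr37/46) peptide. The reaction was stopped with EDTA, and phosphorylation was read by HTRF with a Eu-anti-phospho antibody. IC50 values came from 11-point half-log titrations, typically from 10 μM.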

CDK2/CCNE1 = CDK2/CCNE1 (Homo sapiens, UniProt P24941); experiment: CDK2 homogeneous time-resolved fluorescence (HTRF) kinase assay; settings: CDK2/CCNE
How it was run: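 3 nM CDK2/CCNE1 was preincubated with compound for 20 min at 23 °C in HEPES buffer (pH not stated), then reacted 60 min with 1 mM ATP and 50 nM ULight-4E-BP1 (Thr37/46) peptide. After EDTA stop, Eu-anti-phospho-4E-BP1 antibody (2 nM) was added for 60 min and TR-FRET read at 665 nm.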

[1] = x = IC50 >250 nM, read-out: CDK1/CCNB IC50 (>250 nM column)
[2] = x = IC50 >250 nM, read-out: CDK6/CCND IC50 (>250 nM column)
[3] = x = IC50 >250 nM, read-out: CDK4/CCND IC50 (>250 nM column)
[4] = x = IC50 25-250 nM, read-out: CDK2/CCNE IC50 (25-250 nM)
[5] = x = IC50 <25 nM, read-out: CDK2/CCNE IC50 (<25 nM)
[6] = x = IC50 >250 nM, read-out: CDK2/CCNE IC50 (>250 nM column)

Sequence of CDK1/CCNB1 (P06493 whole entry): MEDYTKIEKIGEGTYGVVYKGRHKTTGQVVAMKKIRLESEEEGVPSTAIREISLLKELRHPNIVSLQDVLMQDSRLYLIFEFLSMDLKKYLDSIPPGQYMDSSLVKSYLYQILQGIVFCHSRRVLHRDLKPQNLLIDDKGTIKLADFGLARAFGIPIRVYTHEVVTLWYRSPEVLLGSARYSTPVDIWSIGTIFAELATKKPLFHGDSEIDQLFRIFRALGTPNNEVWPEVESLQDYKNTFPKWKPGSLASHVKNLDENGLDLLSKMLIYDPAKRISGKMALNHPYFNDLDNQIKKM
Sequence of CDK1/CCNB1 (P14635 whole entry partner): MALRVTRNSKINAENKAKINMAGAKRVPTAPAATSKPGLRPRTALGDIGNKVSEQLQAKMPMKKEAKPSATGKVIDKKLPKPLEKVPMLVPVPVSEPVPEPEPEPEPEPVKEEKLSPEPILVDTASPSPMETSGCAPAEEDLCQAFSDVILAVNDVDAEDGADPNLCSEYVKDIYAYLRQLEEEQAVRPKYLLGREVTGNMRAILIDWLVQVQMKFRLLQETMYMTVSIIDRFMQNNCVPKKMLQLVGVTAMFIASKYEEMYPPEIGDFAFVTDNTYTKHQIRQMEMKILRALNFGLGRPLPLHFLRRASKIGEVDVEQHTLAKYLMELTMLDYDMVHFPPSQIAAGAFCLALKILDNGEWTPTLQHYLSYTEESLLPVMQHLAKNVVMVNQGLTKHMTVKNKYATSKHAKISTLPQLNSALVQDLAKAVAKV
Sequence of CDK6/CCND1 (Q00534 whole entry): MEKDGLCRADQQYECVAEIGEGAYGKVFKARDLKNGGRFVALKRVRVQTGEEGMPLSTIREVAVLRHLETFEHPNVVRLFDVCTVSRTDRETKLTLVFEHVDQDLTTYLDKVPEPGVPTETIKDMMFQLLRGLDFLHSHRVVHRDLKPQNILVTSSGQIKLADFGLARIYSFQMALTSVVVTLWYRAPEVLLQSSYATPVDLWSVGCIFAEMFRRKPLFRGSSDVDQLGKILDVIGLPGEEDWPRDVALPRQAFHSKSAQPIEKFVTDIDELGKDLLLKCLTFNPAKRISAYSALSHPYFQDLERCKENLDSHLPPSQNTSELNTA
Sequence of CDK6/CCND1 (P24385 whole entry partner): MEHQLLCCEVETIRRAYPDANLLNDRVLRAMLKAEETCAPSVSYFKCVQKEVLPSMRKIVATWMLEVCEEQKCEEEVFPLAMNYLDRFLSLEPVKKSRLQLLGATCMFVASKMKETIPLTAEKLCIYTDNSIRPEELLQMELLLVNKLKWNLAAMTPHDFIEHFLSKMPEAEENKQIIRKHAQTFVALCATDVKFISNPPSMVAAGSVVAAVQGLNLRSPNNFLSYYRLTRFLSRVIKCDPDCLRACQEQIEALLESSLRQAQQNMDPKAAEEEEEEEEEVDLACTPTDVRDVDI
Sequence of CDK4/CCND3 (P11802 whole entry): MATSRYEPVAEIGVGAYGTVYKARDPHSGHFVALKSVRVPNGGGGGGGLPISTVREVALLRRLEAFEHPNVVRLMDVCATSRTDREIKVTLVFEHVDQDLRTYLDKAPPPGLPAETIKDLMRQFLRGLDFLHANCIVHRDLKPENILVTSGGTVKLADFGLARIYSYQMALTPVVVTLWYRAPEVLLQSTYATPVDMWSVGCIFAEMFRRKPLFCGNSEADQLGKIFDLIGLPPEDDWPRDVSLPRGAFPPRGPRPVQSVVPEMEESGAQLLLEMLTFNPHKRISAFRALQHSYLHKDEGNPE
Sequence of CDK4/CCND3 (P30281 whole entry partner): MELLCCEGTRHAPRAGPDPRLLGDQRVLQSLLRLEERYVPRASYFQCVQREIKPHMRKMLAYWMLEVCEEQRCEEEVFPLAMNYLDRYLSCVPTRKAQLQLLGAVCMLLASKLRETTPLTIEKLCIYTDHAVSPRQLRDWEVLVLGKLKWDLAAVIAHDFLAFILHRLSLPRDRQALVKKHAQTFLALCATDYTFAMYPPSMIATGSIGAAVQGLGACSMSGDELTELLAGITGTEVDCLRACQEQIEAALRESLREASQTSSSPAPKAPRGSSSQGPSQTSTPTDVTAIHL

| SMILES | IC50 (CDK1/CCNB1; [1]) | IC50 (CDK6/CCND1; [2]) | IC50 (CDK4/CCND3; [3]) | IC50 (CDK2/CCNE1; [4]) | IC50 (CDK1/CCNB1; x = IC50 25-250 nM, read-out: CDK1/CCNB IC50 (25-250 nM)) | IC50 (CDK6/CCND1; x = IC50 25-250 nM, read-out: CDK6/CCND IC50 (25-250 nM)) | IC50 (CDK4/CCND3; x = IC50 25-250 nM, read-out: CDK4/CCND IC50 (25-250 nM)) | IC50 (CDK2/CCNE1; [5]) | IC50 (CDK2/CCNE1; [6]) |
| --- | --- | --- | --- | --- | --- | --- | --- | --- | --- |
| COc1ccc(C#Cc2nccc3cnc(Nc4ccc(S(C)(=O)=O)cc4)cc23)cc1F [Ex 499, 5-((3-fluoro-4-methoxyphenyl)ethynyl)-N-(4-(methylsulfonyl)phenyl)-2,6-naphthyridin-3-amine] | > 250 nM | > 250 nM | > 250 nM | 25 to 250 nM |  |  |  |  |  |
| Cc1c(C#Cc2nccc3cnc(Nc4ccc(S(C)(=O)=O)cc4)cc23)ccnc1Cl [Ex 500, 5-((2-chloro-3-methylpyridin-4-yl)ethynyl)-N-(4-(methylsulfonyl)phenyl)-2,6-naphthyridin-3-amine] | > 250 nM | > 250 nM | > 250 nM | 25 to 250 nM |  |  |  |  |  |
| CS(=O)(=O)c1ccc(Nc2cc3c(C#Cc4cnc5[nH]c(=O)oc5c4)nccc3cn2)cc1 [Ex 501, 6-((7-((4-(methylsulfonyl)phenyl)amino)-2,6-naphthyridin-1-yl)ethynyl)oxazolo[4,5-b]pyridin-2(3H)-one] | > 250 nM | > 250 nM | > 250 nM | 25 to 250 nM |  |  |  |  |  |
| CS(=O)(=O)c1ccc(Nc2cc3c(C#Cc4cccn5ncnc45)nccc3cn2)cc1 [Ex 502, 5-([1,2,4]triazolo[1,5-a]pyridin-8-ylethynyl)-N-(4-(methylsulfonyl)phenyl)-2,6-naphthyridin-3-amine] | > 250 nM | > 250 nM | > 250 nM | 25 to 250 nM |  |  |  |  |  |
| CS(=O)(=O)c1ccc(Nc2cc3c(C#Cc4n[nH]c5c(F)cccc45)nccc3cn2)cc1 [Ex 503, 5-((7-fluoro-1H-indazol-3-yl)ethynyl)-N-(4-(methylsulfonyl)phenyl)-2,6-naphthyridin-3-amine] | > 250 nM | > 250 nM | > 250 nM | 25 to 250 nM |  |  |  |  |  |
| CC(C)(C#Cc1nccc2cnc(Nc3ccc(S(C)(=O)=O)cc3)cc12)CO [Ex 504, 2,2-dimethyl-4-(7-((4-(methylsulfonyl)phenyl)amino)-2,6-naphthyridin-1-yl)but-3-yn-1-ol] |  |  |  |  | 25 to 250 nM | 25 to 250 nM | 25 to 250 nM | < 25 nM |  |
| CC(=O)Nc1ncc(C#Cc2nccc3cnc(Nc4ccc(S(C)(=O)=O)cc4)cc23)s1 [Ex 505, N-(5-((7-((4-(methylsulfonyl)phenyl)amino)-2,6-naphthyridin-1-yl)ethynyl)thiazol-2-yl)acetamide] | > 250 nM | > 250 nM | > 250 nM | 25 to 250 nM |  |  |  |  |  |
| CS(=O)(=O)c1ccc(Nc2cc3c(C#Cc4ccc(N5CCCC(Cl)(Cl)C5=O)cc4)nccc3cn2)cc1 [Ex 506, 3,3-dichloro-1-(4-((7-((4-(methylsulfonyl)phenyl)amino)-2,6-naphthyridin-1-yl)ethynyl)phenyl)piperidin-2-one] | > 250 nM | > 250 nM | > 250 nM |  |  |  |  |  | > 250 nM |
| Cc1cnc(C#Cc2nccc3cnc(Nc4ccc(S(C)(=O)=O)cc4)cc23)cn1 [Ex 507, 5-((5-methylpyrazin-2-yl)ethynyl)-N-(4-(methylsulfonyl)phenyl)-2,6-naphthyridin-3-amine] | > 250 nM | > 250 nM | > 250 nM |  |  |  |  |  | > 250 nM |
| CS(=O)(=O)c1ccc(Nc2cc3c(C#Cc4ccnc(F)c4)nccc3cn2)cc1 [Ex 508, 5-((2-fluoropyridin-4-yl)ethynyl)-N-(4-(methylsulfonyl)phenyl)-2,6-naphthyridin-3-amine] | > 250 nM | > 250 nM | > 250 nM | 25 to 250 nM |  |  |  |  |  |
| Cc1cnc(F)cc1C#Cc1nccc2cnc(Nc3ccc(S(C)(=O)=O)cc3)cc12 [Ex 509, 5-((2-fluoro-5-methylpyridin-4-yl)ethynyl)-N-(4-(methylsulfonyl)phenyl)-2,6-naphthyridin-3-amine] | > 250 nM | > 250 nM | > 250 nM | 25 to 250 nM |  |  |  |  |  |
| COc1ccc(C#Cc2nccc3cnc(Nc4ccc(S(C)(=O)=O)cc4)cc23)nn1 [Ex 514, 5-((6-methoxypyridazin-3-yl)ethynyl)-N-(4-(methylsulfonyl)phenyl)-2,6-naphthyridin-3-amine] | > 250 nM | > 250 nM | > 250 nM |  |  |  |  |  | > 250 nM |
| Cn1cc(C#Cc2nccc3cnc(Nc4ccc(S(C)(=O)=O)cc4)cc23)ncc1=O [Ex 515, 1-methyl-5-((7-((4-(methylsulfonyl)phenyl)amino)-2,6-naphthyridin-1-yl)ethynyl)pyrazin-2(1H)-one] | > 250 nM | > 250 nM | > 250 nM | 25 to 250 nM |  |  |  |  |  |
| CS(=O)(=O)c1ccc(Nc2cc3c(C#Cc4nccc5[nH]ccc45)nccc3cn2)cc1 [Ex 516, 5-((1H-pyrrolo[3,2-c]pyridin-4-yl)ethynyl)-N-(4-(methylsulfonyl)phenyl)-2,6-naphthyridin-3-amine] | > 250 nM | > 250 nM | > 250 nM |  |  |  |  |  | > 250 nM |
| CS(=O)(=O)c1ccc(Nc2cc3c(C#Cc4ccc(C5CC5)nc4)nccc3cn2)cc1 [Ex 517, 5-((6-cyclopropylpyridin-3-yl)ethynyl)-N-(4-(methylsulfonyl)phenyl)-2,6-naphthyridin-3-amine] | > 250 nM | > 250 nM | > 250 nM | 25 to 250 nM |  |  |  |  |  |
| CS(=O)(=O)c1ccc(Nc2cc3c(C#Cc4ccc5oc(=O)[nH]c5c4)nccc3cn2)cc1 [Ex 518, 5-((7-((4-(methylsulfonyl)phenyl)amino)-2,6-naphthyridin-1-yl)ethynyl)benzo[d]oxazol-2(3H)-one] | > 250 nM | > 250 nM | > 250 nM |  |  |  |  | < 25 nM |  |
| CS(=O)(=O)c1ccc(Nc2cc3c(C#Cc4c[nH]c5nc(Cl)ncc45)nccc3cn2)cc1 [Ex 520, 5-((2-chloro-7H-pyrrolo[2,3-d]pyrimidin-5-yl)ethynyl)-N-(4-(methylsulfonyl)phenyl)-2,6-naphthyridin-3-amine] | > 250 nM | > 250 nM | > 250 nM | 25 to 250 nM |  |  |  |  |  |
| COC(=O)c1ccc(C#Cc2nccc3cnc(Nc4ccc(S(C)(=O)=O)cc4)cc23)cn1 [Ex 521, methyl 5-((7-((4-(methylsulfonyl)phenyl)amino)-2,6-naphthyridin-1-yl)ethynyl)picolinate] | > 250 nM | > 250 nM | > 250 nM | 25 to 250 nM |  |  |  |  |  |
| CS(=O)(=O)c1ccc(Nc2cc3c(C#Cc4c[nH]c5ncccc45)nccc3cn2)cc1 [Ex 522, 5-((1H-pyrrolo[2,3-b]pyridin-3-yl)ethynyl)-N-(4-(methylsulfonyl)phenyl)-2,6-naphthyridin-3-amine] | > 250 nM | > 250 nM | > 250 nM | 25 to 250 nM |  |  |  |  |  |
| CS(=O)(=O)c1ccc(Nc2cc3c(C#Cc4cnc(C#N)nc4)nccc3cn2)cc1 [Ex 523, 5-((7-((4-(methylsulfonyl)phenyl)amino)-2,6-naphthyridin-1-yl)ethynyl)pyrimidine-2-carbonitrile] | > 250 nM | > 250 nM | > 250 nM |  |  |  |  |  | > 250 nM |
| COc1ccnc(C#Cc2nccc3cnc(Nc4ccc(S(C)(=O)=O)cc4)cc23)c1N [Ex 525, 5-((3-amino-4-methoxypyridin-2-yl)ethynyl)-N-(4-(methylsulfonyl)phenyl)-2,6-naphthyridin-3-amine] | > 250 nM | > 250 nM | > 250 nM | 25 to 250 nM |  |  |  |  |  |
| COc1ccc(C#Cc2nccc3cnc(Nc4ccc(S(C)(=O)=O)cc4)cc23)c(C)c1 [Ex 527, 5-((4-methoxy-2-methylphenyl)ethynyl)-N-(4-(methylsulfonyl)phenyl)-2,6-naphthyridin-3-amine] | > 250 nM | > 250 nM | > 250 nM | 25 to 250 nM |  |  |  |  |  |
| CS(=O)(=O)c1ccc(Nc2cc3c(C#Cc4ccc(=O)n(C(F)F)c4)nccc3cn2)cc1 [Ex 528, 1-(difluoromethyl)-5-((7-((4-(methylsulfonyl)phenyl)amino)-2,6-naphthyridin-1-yl)ethynyl)pyridin-2(1H)-one] | > 250 nM | > 250 nM | > 250 nM | 25 to 250 nM |  |  |  |  |  |
